Legend:
[1] = Mouse liver microsomal stability, single 30 min time point; type: in vitro ADME; settings: primary mouse liver microsomes (MLM)
[2] = Metabolite ID study of 1i in mouse hepatocytes; type: in vitro ADME; settings: 1i incubated 4 h in mouse primary hepatocytes; relative quantity by UV
[3] = Intrinsic clearance in mouse liver microsomes; type: in vitro ADME
[4] = In vivo mouse pharmacokinetics; settings: male, CD-1, mouse, plasma
[5] = Intrinsic clearance in primary mouse hepatocytes; type: in vitro ADME; settings: male, CD-1, mouse, cryopreserved primary hepatocytes
[6] = Intrinsic clearance in mouse liver S9 fraction; type: in vitro ADME; settings: male, CD-1, mouse
mice = test: Dose ranging study of EA tolerability in mice; type: in vivo, mouse; settings: i.p.

| Structure (SMILES) | parent compound remaining after 30 min [1] [%] | rel. (%) of peak (metabolite or parent) [2] [%] | CLint scaled [3] [mL/min/kg] | AUC(0-t) ([4]; ip, 10 mg/kg) [ng·h/mL] | Cmax ([4]; ip, 10 mg/kg) [ng/mL] | bioavailability ([4]; ip, 10 mg/kg) [%] | Cmax ([4]; iv, 1 mg/kg) [ng/mL] | clearance ([4]; iv, 1 mg/kg) [mL/min/kg] | CLint scaled at 1 μM [5] [mL/min/kg] | CLint scaled [6] [mL/min/kg] | half-life ([4]; ip, 10 mg/kg) [h] | AUC(0-t) ([4]; iv, 1 mg/kg) [ng·h/mL] | Vd ([4]; iv, 1 mg/kg) [L/kg] | half-life ([4]; iv, 1 mg/kg) [h] | doses that resulted in clinical symptoms including death (mice) [mg/kg] |
| --- | --- | --- | --- | --- | --- | --- | --- | --- | --- | --- | --- | --- | --- | --- | --- |
| CCC(=O)Nc1cc(Nc2cc(NC3CC3)n3ncc(C#N)c3n2)ccc1C [Compound 1a] | 40 |  |  |  |  |  |  |  |  |  |  |  |  |  |  |
| C=C(CC)C(=O)c1ccc(OCC(=O)O)c(Cl)c1Cl [EA, ethacrynic acid] |  |  |  |  |  |  |  |  |  |  |  |  |  |  | ≥ 100 |

The next lines start with results.

| parent compound remaining after 30 min [1] [%] | rel. (%) of peak (metabolite or parent) [2] [%] | CLint scaled [3] [mL/min/kg] | AUC(0-t) ([4]; ip, 10 mg/kg) [ng·h/mL] | Cmax ([4]; ip, 10 mg/kg) [ng/mL] | bioavailability ([4]; ip, 10 mg/kg) [%] | Cmax ([4]; iv, 1 mg/kg) [ng/mL] | clearance ([4]; iv, 1 mg/kg) [mL/min/kg] | CLint scaled at 1 μM [5] [mL/min/kg] | CLint scaled [6] [mL/min/kg] | half-life ([4]; ip, 10 mg/kg) [h] | AUC(0-t) ([4]; iv, 1 mg/kg) [ng·h/mL] | Vd ([4]; iv, 1 mg/kg) [L/kg] | half-life ([4]; iv, 1 mg/kg) [h] | Structure (SMILES) | doses that resulted in clinical symptoms including death (mice) [mg/kg] |
| --- | --- | --- | --- | --- | --- | --- | --- | --- | --- | --- | --- | --- | --- | --- | --- |
|  | 53 | < 24 | 7010 | 4700 | 100 | 1100 | 36 |  |  |  |  |  |  | CCC(=O)Nc1cc(Nc2cc(NC3CC3)n3ncc(C#N)c3n2)ccc1N1CCC[C@H](NC)C1 [Compound 1i, (S)-N-(5-((3-Cyano-7-(cyclopropylamino)pyrazolo[1,5-a]pyrimidin-5-yl)amino)-2-(3-(methylamino)piperidin-1-yl)phenyl)propionamide] |  |
|  |  | < 24 | 770 | 670 | 40 | 350 | 84 | 132 | 1 | 1.5 | 200 | 5.07 | 1.8 | CN[C@H]1CCCN(c2ccc(Nc3cc(NC4CC4)n4ncc(C#N)c4n3)cc2NC(C)=O)C1 [Compound 2c, (S)-N-(5-((3-Cyano-7-(cyclopropylamino)pyrazolo[1,5-a]pyrimidin-5-yl)amino)-2-(3-(methylamino)piperidin-1-yl)phenyl)acetamide] |  |
|  |  | 27 | 1300 | 1500 | 53 | 810 | 69 | 69 | 4 | 1.4 | 250 | 2.67 | 1.2 | CN[C@H]1CCN(c2ccc(Nc3cc(NC4CC4)n4ncc(C#N)c4n3)cc2NC(C)=O)C1 [Compound 2e, (S)-N-(5-((3-Cyano-7-(cyclopropylamino)pyrazolo[1,5-a]pyrimidin-5-yl)amino)-2-(3-(methylamino)pyrrolidin-1-yl)phenyl)acetamide] |  |
